Data as given in patent US20090156644A1, “Use of thiazole derivatives and analogues in the treatment of cancer” (priority 2005, published 2009).

What was measured:
MDA-MB-231 cells = test: Test A cell proliferation assay (FFA/linolenic acid stimulated, S-phase by flow cytometry); format: cell-based, human; details: linolenic acid 100 μM, 24 hours; Compounds X and Y 10 μM, Compound Z 40 μM; FIGS. 1c, 2A-2C
Method: Dulbecco's modified Eagle's medium (D-MEM)+1000 mg/L Glucose+GlutaMAX™1+Pyruvate (Gibco #21885-025)
PEST (100 U/ml penicillin, 100 ug/ml streptomycin, Gibco 15140-122) CyStain PI absolute T Kit (Partec #05-5023) Linolenic acid 99%, L2376 from Sigma Aldrich Dimethyl sulfoxide (DMSO)
Cytomics™ FC500 Flow Cytometer with CXP software (Beckman Coulter) MDA-MB-231 cells
MDA-MB-231 cells were cultured in the propagation media D-MEM+1000 mg/L Glucose+GlutaMAX™1+Pyruvate supplemented with 10% V/V Foetal Bovine Serum and PEST (100 U/ml penicillin, 100 μg/mL streptomycin). Cells were seeded in 6 well plates to a density of 300 000 cells/well in propagation media. After 24 hours, media was replaced with serum free D-MEM media.
Linolenic acid was diluted in DMSO to a concentration of 100 mM and added to the culture media to a final concentration of 100 μM.
Compounds were as dissolved in DMSO to a concentrations of 10 mM (Compounds of Examples 95 and 6 (Compound X and Compound Y, respectively)) and 40 mM (Compound of Example 4 (Compound Z)) and added to the culture media to a final concentration of 10 μM (X and Y) and 40 μM (Z) respectively.
After 24 hours in serum free media DMEM, linolenic acid (to a final concentration of […]) and compounds to be screened for activity were added to a final concentration of 10 μM (Compounds X and Y) and 40 μM (Compound Z) respectively. Final DMSO concentration was kept at 0.2% in all wells. After 24 hours of stimulation, cells were harvested and propidium iodine stained using a CyStain PI absolute T Kit according to manufacturer's recommendations. Cells were subsequently analyzed using a Cytomics™ FC500 Flow Cytometer with CXP software (Beckman Coulter) for cell cycle distribution. Cells were incubated with or without linolenic acid (LA) and the Compounds X, Y and Z for 24 hours at indicated concentrations. Cells in S-phase from untreated sample were set to 100% in each experiment.

[1] = tested on: MDA-MB-231 human breast cancer cells; test: Test B in vivo mouse model, tumor histology; set-up: species or system Athymic BALB/cA nude mice; details: 1 mg/kg intraperitoneal once daily for 9 days; for cell density in the interior of the tumor section / cells displaying macrophage/monocyte morphology in the interior of the tumor section: hematoxylin stained cryosections, versus vehicle
Method: week old Athymic BALB/cA nude mice were delivered from Taconic (Denmark) and kept under barrier conditions for 1 week acclimatisation. At 6 weeks, 17 mice were injected subcutaneously on the flank with 1.8×10^6 MDA-MB-231 human breast cancer cells (LGC Promochem-ATCC) in a 50/50 v/v solution of phosphate buffered saline (PBS) (Gibco 10010-015, Invitrogen) Matrigel HC (BD Biosciences).
2 mice were sacrificed and the tumors dissected and examined. 2 groups of 7 mice each were treated once daily by intraperitoneal injections of 1 mg/kg bodyweight of the compound of Example 6 (Compound Y) in PBS/1% v/v dimethylsufoxide or vehicle control respectively for 9 days. The mice were sacrificed by cervical dislocation and tumors were dissected.
The tumor tissue were fixated overnight in PBS (containing 4% w/v paraformaldehyde (Scharlau PA0095, Sharlau Chemie SA, Spain) at +4° C. The tumor tissue were then cryopreserved by 24 hour incubation in PBS containing 30% w/v sucrose (BDH #102745C (www.vwr.com) at +4° C. and embedded in Tissue-Tek embedding media (Sakura Finetek Europa BV, Netherlands). 10 μm cryosections were generated an stained with Mayers Hematoxylin (Dako) for 5 min and destained for 3×10 minutes in tap water. Slides were mounted using Dako faramount aqueous mounting medium and examined using a Nikon Eclipse TS 100 microscope documented using a Nikon coolpix 4500.
The tumors from mice treated with test compound and vehicle were analyzed for morphology by microscopic examination of hematoxylin stained cryosections.

SMILES | antagonism of free fatty acid stimulated cell proliferation (MDA-MB-231 cells) | cells displaying fibroblast morphology in the interior of the tumor section ([1]; hematoxylin stained cryosection, 20× magnification) | cell density in the interior of the tumor section [1] | cells displaying macrophage/monocyte morphology in the interior of the tumor section [1] | cell density in the interior of the tumor section ([1]; listed as test compound) | cells displaying macrophage/monocyte morphology in the interior of the tumor section ([1]; listed as test compound)
O=C1NC(=Nc2ccccn2)SC1Cc1ccc(F)cc1 (centres unmarked) [Compound X, 5-(4-Fluorobenzyl)-2-(pyridin-2-ylimino)thiazolidin-4-one] | able to antagonize free fatty acid stimulated cell proliferation |  |  |  |  | 
O=C1NC(=Nc2ccc(Cl)cc2)SC1Cc1cccc(C(F)(F)F)c1 (centres unmarked) [Compound Y, 5-(3-(Trifluoromethyl)benzyl)-2-(4-chlorophenylimino)thiazolidin-4-one] | able to antagonize free fatty acid stimulated cell proliferation | lack of cells displaying fibroblast morphology | low cell density | accumulation of cells displaying morphology indicative of macrophage/monocyte | markedly reduced | a frequent finding
Cc1ccc(N=C2NC(=O)C(Cc3cccc(C(F)(F)F)c3)S2)cc1 (centres unmarked) [Compound Z, 5-(3-(Trifluoromethyl)benzyl)-2-(p-tolylimino)thiazolidin-4-one] | able to antagonize free fatty acid stimulated cell proliferation |  |  |  |  | 
